Test results from publication PMC12087607 (Drug Design, Development and Therapy, 2025).

Columns and labels:
α-SMA = experiment: Immunohistochemical staining of α-SMA in CCl4-induced liver fibrosis; type: in vivo, rat; conditions: CCl4 6 weeks, then 6-week treatment 20 mg/kg/day; vs model group
GSH = experiment: Reduced glutathione; type: in vivo, rat; conditions: liver homogenates; CCl4 6 weeks, then 6-week treatment 20 mg/kg/day
male Wistar rats [1] = experiment: In vivo toxicity study: daily inspection and body weight; conditions: daily inspection, body weight twice weekly, 6 weeks
[2] = tested on: rats with CCl4-induced liver fibrosis; experiment: Liver histology; type: in vivo, rat; conditions: CCl4 6 weeks, then 6-week treatment 20 mg/kg/day
rat livers = type: in vivo; conditions: toxicity groups
TGF-β1 = experiment: Hepatic TGF-β1 mRNA expression; type: in vivo, rat; conditions: CCl4 6 weeks, then 6-week treatment 20 mg/kg/day; vs model group
male Wistar rats [3] = experiment: In vivo toxicity study: hepatic and renal serum biomarkers; conditions: in vivo toxicity study groups, 6 weeks, mean ± SEM, n = 5
MDA = experiment: Lipid peroxides; type: in vivo, rat; conditions: liver homogenates; CCl4 6 weeks, then 6-week treatment 20 mg/kg/day
MMP-9 = experiment: Hepatic MMP-9 mRNA expression; type: in vivo, rat; conditions: CCl4 6 weeks, then 6-week treatment 20 mg/kg/day
TNF-α = experiment: Liver TNF-α content; type: in vivo, rat; conditions: liver homogenates; CCl4 6 weeks, then 6-week treatment 20 mg/kg/day
TIMP-1 = experiment: Hepatic TIMP-1 protein levels; type: in vivo, rat; conditions: tissue homogenates; CCl4 6 weeks, then 6-week treatment 20 mg/kg/day
[4] = tested on: rats with CCl4-induced liver fibrosis; experiment: Serum liver biomarkers in CCl4-induced liver fibrosis; type: in vivo, rat; conditions: CCl4 6 weeks, then 6-week treatment 20 mg/kg/day

## Cc1ccc(-c2cc(C(F)(F)F)nn2-c2ccc(S(N)(=O)=O)cc2)cc1 [celecoxib]
α-SMA
  α-SMA % change (in words): significant decline of the α-SMA %
GSH
  GSH content: significant rise in GSH levels
Male Wistar rats [1]
  Signs of stress, toxicity or weight loss: did not show any signs of stress, toxicity or weight loss
[2]
  Liver architecture (H&E): evident fibrolytic effects
[2]; Masson's trichrome
  Fibrosis score (0–4): significant decrease in fibrosis scores
Rat livers
  Gross examination of rat livers: normal smooth livers with no inflammation or fatty depositions
TGF-β1
  Hepatic TGF-β1 mRNA expression: significant reduction in the expression of TGF- β1
Male Wistar rats [3]
  ALP: 123 ± 6.59 U/L
  ALT: 45.66 ± 0.88 U/L
  AST: 127.5 ± 14 U/L
  Albumin: 3.68 ± 0.04 g/dL
  Creatinine: 0.43 ± 0.06 mg/dL
  Total Bilirubin: 0.045 ± 0.006 mg/dL
MDA
  MDA content (lipid peroxides): significant lowering effect on MDA levels
MMP-9
  Hepatic MMP-9 mRNA expression: reversed that upregulation
TNF-α
  Liver TNF-α content: significantly superior effect in lowering TNF-α levels
TIMP-1
  Hepatic TIMP-1 protein levels: caused a decrease in TIMP-1 levels
[4]; normal range 30 to 130 U/L
  Serum ALP levels: lied within the normal range
[4]; vs model group
  Serum AST and ALT levels: significant reduction in liver enzyme levels
  Total serum bilirubin (TBIL) levels: significant decrease in the total serum bilirubin levels
